Measurements from ChEMBL document CHEMBL1122049, “Synthesis and in vitro antimicrobial activity of 5-substituted 2H-1,3,5-thiadiazine-2,4(3H)-diones” (1982).
Values after ≈ are worked out from the molar mass of the structure shown.

Key:
[1] = tested on: Trichophyton benhamiae; test: Minimum inhibitory concentration against Trichophyton mentagrophytes in Sabouraud dextrose broth by using […]; assay type: functional, Arthroderma benhamiae
[2] = tested on: Candida albicans; test: Minimum inhibitory concentration against Candida albicans in Sabouraud dextrose broth by using […]; assay type: functional

CC(=O)c1ccc(-c2nc(=O)[nH]c(=O)s2)cc1
MIC [1]: < 2 µg/mL | MIC [2]: 31 µg/mL (≈ 125 µM)

O=c1nc(Cc2ccc3c(c2)OCO3)sc(=O)[nH]1
MIC [1]: 4 µg/mL (≈ 15.1 µM) | MIC [2]: 125 µg/mL (≈ 473 µM)

O=c1nc(-c2ccccc2)sc(=O)[nH]1
MIC [1]: < 2 µg/mL | MIC [2]: 8 µg/mL (≈ 38.8 µM)

O=c1nc(-c2cccs2)sc(=O)[nH]1
MIC [1]: 2 µg/mL (≈ 9.42 µM) | MIC [2]: 62 µg/mL (≈ 292 µM)

O=c1nc(-c2ccco2)sc(=O)[nH]1
MIC [1]: < 2 µg/mL | MIC [2]: 15 µg/mL (≈ 76.5 µM)

O=c1nc(-c2ccc3c(c2)OCO3)sc(=O)[nH]1
MIC [1]: 125 µg/mL (≈ 500 µM) | MIC [2]: > 250 µg/mL

CN(C)c1ccc(-c2nc(=O)[nH]c(=O)s2)cc1
MIC [1]: 62 µg/mL (≈ 249 µM) | MIC [2]: > 125 µg/mL

CC(C)c1nc(=O)[nH]c(=O)s1
MIC [1]: 15 µg/mL (≈ 87.1 µM) | MIC [2]: 81 µg/mL (≈ 470 µM)

O=c1nc(Cc2ccccc2)sc(=O)[nH]1
MIC [1]: < 2 µg/mL | MIC [2]: 125 µg/mL (≈ 568 µM)

O=c1nc(-c2ccc(Cl)cc2)sc(=O)[nH]1
MIC [1]: 4 µg/mL (≈ 16.6 µM) | MIC [2]: 15 µg/mL (≈ 62.3 µM)

O=c1nc(Cc2cccnc2)sc(=O)[nH]1
MIC [1]: 8 µg/mL (≈ 36.2 µM) | MIC [2]: 62 µg/mL (≈ 280 µM)

Cc1ccc(-c2nc(=O)[nH]c(=O)s2)cc1
MIC [1]: < 2 µg/mL | MIC [2]: > 250 µg/mL

COc1ccc(-c2nc(=O)[nH]c(=O)s2)cc1
MIC [1]: 8 µg/mL (≈ 33.9 µM) | MIC [2]: 125 µg/mL (≈ 529 µM)

Oc1c(I)cc(Cl)c2cccnc12 [CLIOQUINOL]
MIC [1]: 4 µg/mL (≈ 13.1 µM) | MIC [2]: 1 µg/mL (≈ 3.27 µM)
